US20110288036A1, “Methods for Treating or Preventing Vascular Graft Failure” (priority 2010, published 2011)

What was measured:
[1] = test system: THP-1 cells; assay: Cytokine ELISA in PMA/LPS-activated THP-1 cells; format: cell-based, human; conditions: PMA then LPS
Procedure: The ability of MMI-0100 ([…]; SEQ ID NO: 1) to inhibit the production of inflammatory cytokines (TNF-α and IL-1β) in vitro was examined using THP-1 cells. Briefly, THP-1 cells were activated with PMA for 24 hours, and treated subsequently with 10 μg of LPS. The amount of inflammatory cytokines (TNF-α and IL-1β, pg/ml) produced in the medium in the presence or absence of increasing concentrations (1 μM, 3 μM, 10 μM, and 30 μM) of MMI-0100 ([…]; SEQ ID NO: 1) was determined by cytokine specific enzyme-linked immunosorbent assay (ELISA). Analysis of inflammatory cytokines (TNF-α and IL-1β) was performed with cytokine-specific ELISA kit (PeproTech, Inc., Rocky Hill, N.J.). The cytokine-specific ELISA employs highly-purified anti-cytokine antibodies (capture antibodies) that are noncovalently adsorbed (“coated”) onto plastic microwell plates. After washings, the immobilized antibodies capture specifically soluble cytokine proteins present in samples applied to the plate. After washing away unbound material, the captured cytokine proteins are detected by biotin-conjugated anti-cytokine antibodies (detection antibodies) followed by an enzyme-labeled avidin or streptavidin reporter. Following addition of a chromogenic (color-developing) substrate-containing solution, the level of colored product generated by the bound, enzyme-linked, detection reagents can be measured spectrophotometrically using an ELISA-plate reader at an appropriate optical density.
In order to prepare plates for ELISA, capture antibodies (anti-TNF-α or anti-IL-1β antibodies) were diluted with PBS to a concentration of 1 μg/ml. 100 μl of each diluted antibody was added immediately to each well of the ELISA plate. […]
The standard was diluted from 2 ng/ml to zero in diluent, and 100 μl of the standard or sample was added immediately to each well in triplicate and incubated at room temperature for at least 2 hours. […] The level of colored product generated by the bound, enzyme-linked, detection reagents was measured spectrophotometrically using an ELISA-plate reader at an appropriate optical density.

[2] = test system: vein graft (inferior vena cava) intimal hyperplasia; assay: Mouse vein graft model; format: in vivo
Procedure: 12-week-old C57BL/6 wild type mice (Harlan) were used for all experiments, as previously described (Muto, A. et al., J. Exp. Med., 2011, 208(3): 561-575, incorporated herein by reference in its entirety). […] Prior to implantation, the vein was treated ex vivo with 100 μM of MMI-0100 ([…] (SEQ ID NO: 1)) peptide solution, or control PBS solution, for 20 minutes at room temperature.
To implant the vein graft, a midline incision was made in the abdomen of a recipient mouse and the infrarenal abdominal aorta was exposed. The abdominal aorta was temporarily occluded with atraumatic micro-clamps and a segment corresponding to the length of the vein graft was excised. The vein was sutured into the arterial circulation using 10-0 nylon in continuous fashion.
Vein grafts were followed postoperatively using the Vevo770® High-Resolution Imaging System (VisualSonics, Toronto, Canada), with weekly measurements of graft wall thickness. At 28 days after surgery, mice were sacrificed to allow explantation of the vein graft. Tissue was either frozen with RNA stabilization reagent (Qiagen) or explanted for paraffin embedding after circulatory flushing with ice-cold PBS followed by 4% paraformaldehyde perfusion-fixation. Vein graft wall thickness, lumen diameter, and outer wall diameter (elastic lamina) were measured in elastin-stained sections using computer morphometry (ImageJ).
Vein graft samples were fixed as described above and harvested for histology. Specimens were embedded in paraffin and cut in cross section (5 μm). Hematoxylin & Eosin, Masson trichrome, and van Gieson elastin staining were performed for all samples. Cells were cultured on gelatin-coated cover slips and fixed with methanol.
All sections were treated for antigen retrieval using 10 mmol/L citrate buffer (pH 6.0) prior to boiling or proteinase K (20 μg/ml) treatment, at room temperature, for 10-15 minutes. Immunohistochemical detection was performed using DAB as well as NovaRED® substrate (Vector). Sections were counterstained with Mayer's Hematoxylin.
The efficacy of MMI-0100 ([…]; SEQ ID NO: 1) in treating intimal hyperplasia in vivo was examined using a mouse model of vein bypass graft. […] The IVC was soaked in a 100 μM solution of MMI-0100 ([…]; SEQ ID NO: 1) at room temperature for 20 minutes prior to implantation into a host (C57BL/6J) mouse to bypass the infrarenal aorta. Five treated and six untreated veins were transplanted for a total of 11 transplanted animals. Vein graft wall thickness was determined using a […] ultrasound imaging system at each week.
In order to further confirm the inhibitory effects of MMI-0100 ([…]; SEQ ID NO: 1) on intimal hyperplasia development in an […] model, the effect of MMI-0100 ([…]; SEQ ID NO: 1) was investigated in a follow-up study using a mouse model of vein graft adaptation. To this end, vein grafts were treated with PBS or 100 μM of MMI-0100 ([…]; SEQ ID NO: 1) for 20 minutes prior to implantation; the thickness of the vein grafts then was examined weekly with ultrasound.

Question: Which results are given for YARAAARQARAKALARQLGVAA [MMI-0100]?
Answer: IL-1β level in the medium ([1]; 30 μM, PMA/LPS alone about 450 pg/ml): about 100 pg/ml; TNF-α level in the medium ([1]; 30 μM, PMA/LPS alone about 1000 pg/ml): about 300 pg/ml; production of pro-inflammatory cytokines (TNF-α and IL-1β) ([1]; 1, 3, 10 and 30 μM): inhibits the production of pro-inflammatory cytokines (i.e., TNF-α and IL-1β) in a dose-dependent manner; reduced wall thickness compared to control grafts (histological staining) ([2]; follow-up study, 100 μM 20 minutes ex vivo, 4 weeks): 72%; F4/80-positive cells infiltrating into vein grafts ([2]; follow-up study, 100 μM 20 minutes ex vivo, 4 weeks, immunohistochemistry): fewer F4/80-positive cells; vein graft wall thickness ratio ([2]; follow-up study, 100 μM 20 minutes ex vivo, 4 weeks, ultrasound, control 4.7-fold): 2.6 fold; vein graft wall thickness, weekly ultrasound ([2]; follow-up study, 100 μM 20 minutes ex vivo, weeks 1-4): diminished wall thickness at all postoperative time points; vessel wall thickness relative to originally harvested IVC ([2]; graft soaked 100 μM 20 minutes, 4 weeks, ultrasound, control almost five times): about 2.5 times
